In data set [1] the test system is Stat3. As to the kind of experiment: Stat3 phosphorylation and nuclear translocation in C4HD cells. The data set is classed as cell-based, mouse. Here is the method: (§1) Lysates were prepared from cells subjected to the different treatments and proteins were subjected to SDS-PAGE as previously described (21). Membranes were immunoblotted with the antibodies detailed in each experiment. When phospho(p)-protein antibodies were used, filters were reprobed with total protein antibodies. Signal intensities of pErbB-2, pStat3, pSrc, pPR, pJak1, and pJak2 bands were analyzed by densitometry and normalized to total protein bands. Similarly, signal intensities of PR, cyclin D1, Stat3, and ErbB-2 bands were normalized to actin or β tubulin bands. […] The NEPER Nuclear and Cytoplasmic Extraction Reagents technique (Pierce Biotechnology) was performed as per manufacturer's instructions. Nuclear association between ErbB-2 and Stat3 was studied by performing coimmunoprecipitation experiments using 200 μg of nuclear protein lysates as described (22).
siRNAs targeting ErbB-2, Stat3, and Pr were synthesized by Dharmacon, Inc (Lafayatte, Colo.) (ErbB-2siRNA: 5′GAUGGUGCUUACUCAUUGA3′ (SEQ ID NO:8), designed to specifically knockdown mouse ErbB2 but not human ErbB-2; Stat3siRNA: 5′[…]3′ (SEQ ID NO:9) targets mouse Stat3; and 5′[…]3′ (SEQ ID NO:10) targets human Stat3; PRsiRNA: 5′[…]3′(SEQ ID NO:11)). […] Transfection of siRNAs duplexes was performed by using the DharmaFECT transfection reagent following the manufacturer's direction for 3 days. For reconstitution experiments cotransfection of 25 nM ErbB-2 siRNA with 2 μg expression vectors was performed using DharmaFECT Duo transfection reagent (Dharmacon).
(§2) Cells grown on glass coverslips were fixed and permeabilized in ice-cold methanol and were then blocked with PBS 1% BSA. ErbB-2 was localized using either a rabbit polyclonal (C-18) or a mouse monoclonal (F-11) ErbB-2 antibody (Santa Cruz Biotechnology) and Stat3 was detected using a mouse monoclonal antibody (124H6, Cell Signaling), followed by incubation with a goat anti-rabbit IgG-Alexa 488 (Molecular Probes, Eugene, Oreg.) secondary antibody for ErbB-2 (C-18) and with a rhodamine conjugated goat anti-mouse secondary antibody (Jackson ImmunoResearch Laboratories, West Grove, Pa.) for both ErbB2 (F-11) and Stat3. Negative controls were carried out using PBS instead of primary antibodies, or 5× competitive peptide (Santa Cruz Biotechnology) when ErbB-2 (C-18) was used. When cells were transfected with hErbB-2ΔNLS, green fluorescent protein from this expression vector was visualized by direct fluorescence imaging. […] FIGS. 2A, 3B and C, illustrate a few cells representative of the ones examined. Cells were analyzed using a Nikon Eclipse E800 confocal laser microscopy system (22).

A further data set deals with cyclin D1. As to the kind of experiment: Cyclin D1 protein levels by Western blot in C4HD cells. Particulars: C4HD cells preincubated or transfected, then MPA for 48 h. The data set is classed as cell-based, mouse. As to the method:
(§3) Primary cultures of epithelial cells from C4HD tumors were performed as described (2). T47D cells were obtained from American Type Culture Collection and T47D-Y cells were a generous gift from Dr. K. Horwitz (Denver, Colo.). To evaluate the effects of the pharmacological inhibitors on MPA-induced proteins phosphorylation or cyclin D1 expression, cells were preincubated for 90 min with RU486, PP2, Tyrphostin AG825 or Jak inhibitor I before addition of MPA. Cell proliferation was evaluated by [3H]-thymidine incorporation assay and cell cycle distribution was analyzed by flow cytometry, as described (22).
as §1, with “Nuclear association between ErbB-2 and Stat3 was studied by performing coimmunoprecipitation experiments using 200 μg of nuclear protein lysates as described (22).” left out

Data set [2] deals with ErbB-2. As to the kind of experiment: ErbB-2 tyrosine phosphorylation by Western blot in C4HD cells. The data set is classed as cell-based, mouse. Particulars: C4HD cells preincubated with inhibitor or transfected with siRNA before MPA. Here is the method:
as §3
as §1, with “Nuclear association between ErbB-2 and Stat3 was studied by performing coimmunoprecipitation experiments using 200 μg of nuclear protein lysates as described (22).” left out

In data set [3] the test system is ErbB-2. The data set is described as follows: ErbB-2 tyrosine phosphorylation by Western blot in T47D cells. The data set is classed as cell-based, human. Particulars: T47D cells preincubated with inhibitor before MPA. As to the method: as §3, §1
Data set [4] relates to ErbB-2. As to the kind of experiment: ErbB-2 cellular localization (subcellular fractionation/immunoblot, confocal microscopy) in C4HD cells. Format: cell-based, mouse. Particulars: C4HD cells pretreated with inhibitor before MPA. Here is the method: (§4) Lysates were prepared from cells subjected to the different treatments and proteins were subjected to SDS-PAGE as previously described (21). Membranes were immunoblotted with the antibodies detailed in each experiment. When phospho(p)-protein antibodies were used, filters were reprobed with total protein antibodies. Signal intensities of pErbB-2, pStat3, pSrc, pPR, pJak1, and pJak2 bands were analyzed by densitometry and normalized to total protein bands. Similarly, signal intensities of PR, cyclin D1, Stat3, and ErbB-2 bands were normalized to actin or β tubulin bands. […]
(§5) Cells grown on glass coverslips were fixed and permeabilized in ice-cold methanol and were then blocked with PBS 1% BSA. ErbB-2 was localized using either a rabbit polyclonal (C-18) or a mouse monoclonal (F-11) ErbB-2 antibody (Santa Cruz Biotechnology) and Stat3 was detected using a mouse monoclonal antibody (124H6, Cell Signaling), followed by incubation with a goat anti-rabbit IgG-Alexa 488 (Molecular Probes, Eugene, Oreg.) secondary antibody for ErbB-2 (C-18) and with a rhodamine conjugated goat anti-mouse secondary antibody (Jackson ImmunoResearch Laboratories, West Grove, Pa.) for both ErbB2 (F-11) and Stat3. […] When cells were transfected with hErbB-2ΔNLS, green fluorescent protein from this expression vector was visualized by direct fluorescence imaging. […]

In data set [5] the test system is ErbB-2. As to the kind of experiment: ErbB-2 cellular localization (subcellular fractionation/immunoblot, confocal microscopy) in T47D cells. Format: cell-based, human. Particulars: T47D cells pretreated with inhibitor before MPA. Here is the method:
as §4, §5

Data set [6] concerns Stat3. The data set is described as follows: Stat3 phosphorylation and nuclear translocation in T47D cells. The data set is classed as cell-based, human. Particulars: T47D cells pretreated with inhibitor before MPA. As to the method: as §1, §2
Data set [7] concerns cyclin D1 promoter. As to the kind of experiment: Human cyclin D1 promoter luciferase reporter in C4HD cells. Format: cell-based, mouse. Particulars: for MPA-induced cyclin D1 promoter activation: pretreatment or cotransfection, MPA 24 h. An excerpt: The luciferase reporter plasmid downstream the cyclin D1 human promoter region (−1745 cyclin D1-luc), and constructs truncated at positions −963, −261, −141, were kindly provided by Dr. R. Pestell (Northwestern University Medical School, Chicago, Ill.). These constructs were generated by truncation of the 1745-bp length promoter in order to sequentially exclude 5′ regions of the promoter. The −963 cyclin D1-luc construct excludes one GAS site (−984), the −261 cyclin D1-luc excludes three GAS sites (−984, −568 and −475) and the −141 cyclin D1-luc excludes four GAS sites (−984, −568, −475 and −239). The empty vector pA3 Luc was also provided by Dr. R. Pestell. The luciferase reporter plasmid containing four copies of the m67 high-affinity binding site (p4×m67-tk-luc) and the pTATA-tk-Luc reporter lacking the m67 insertion were a gift from Dr J. Darnell (The Rockefeller University, New York, N.Y.). The Renilla luciferase expression plasmid RLCMV was obtained from Promega (Madison, Wis.). Dominant negative Stat3 expression vector, Stat3Y705-F, which carries a tyrosine to phenylalanine substitution at codon 705 that reduces phosphorylation on tyrosine of the wild-type Stat3 protein, therefore inhibiting both dimerization and DNA binding of Stat3 (6,7,16) was kindly provided by Dr J. Darnell (New York, USA). The empty pcDNA3.1 vector was also a gift of Dr J. Darnell. Human wild-type ErbB-2 expression vector (hErbB-2WT) as well as the empty pMe18SM vector were a gift from by Dr. T. Yamamoto (University of Tokyo, Japan) (1). The GFP-tagged human ErbB-2 mutant which lacks the putative nuclear localization signal sequence (aa 676-KRRQQKIRKYTMRR-689) (SEQ ID NO:3), resulting in the sequence of KLM at the deletion junction (hErbB-2ΔNLS), was generously provided by Dr. M. C. Hung (The University of Texas M.D. Anderson Cancer Center, Houston, Tex.) (Giri et al., 2005). The empty pEGFP-N1 vector was obtained from BD Biosciences Clontech (Palo Alto, Calif.). The plasmid encoding the human wild-type hPR-B was kindly provided by Dr. K. Horwitz. In experiments assessing MPA capacity to induce the transcriptional activation of Stat3, C4HD and T47D cells were transiently transfected for 48 h with 1 μg of −1745 cyclin D1-luc reporter plasmid or the truncated −963, −261 and −141 constructs, or with 1 μg p4×m67-tk-luc and 10 ng of RL-CMV used to correct variations in transfection efficiency. As control, cells were transfected with 1 μg of either the pA3 Luc or pTATA-tk-Luc reporters. Cells were cotransfected with 2 μg of Stat3Y705-F when indicated. Total amount of transfected DNA was standardized by adding the empty pcDNA3.1 vector. […] Triplicate samples were analyzed for each datum point. Differences between experimental groups were analyzed by ANOVA followed by Tukey test between groups.

For data set [8], the system named is cyclin D1 promoter. The data set is described as follows: Human cyclin D1 promoter luciferase reporter in T47D cells. The data set is classed as cell-based. Particulars: pretreatment or cotransfection, MPA 24 h. An excerpt: (§6) The luciferase reporter plasmid downstream the cyclin D1 human promoter region (−1745 cyclin D1-luc), and constructs truncated at positions −963, −261, −141, were kindly provided by Dr. R. Pestell (Northwestern University Medical School, Chicago, Ill.). These constructs were generated by truncation of the 1745-bp length promoter in order to sequentially exclude 5′ regions of the promoter. The −963 cyclin D1-luc construct excludes one GAS site (−984), the −261 cyclin D1-luc excludes three GAS sites (−984, −568 and −475) and the −141 cyclin D1-luc excludes four GAS sites (−984, −568, −475 and −239). The empty vector pA3 Luc was also provided by Dr. R. Pestell. The luciferase reporter plasmid containing four copies of the m67 high-affinity binding site (p4×m67-tk-luc) and the pTATA-tk-Luc reporter lacking the m67 insertion were a gift from Dr J. Darnell (The Rockefeller University, New York, N.Y.). The Renilla luciferase expression plasmid RLCMV was obtained from Promega (Madison, Wis.). […] Triplicate samples were analyzed for each datum point. Differences between experimental groups were analyzed by ANOVA followed by Tukey test between groups.

The subject of data set [9] is Stat3. The data set is described as follows: m67 Stat3 binding site luciferase reporter in C4HD cells. Format: cell-based, mouse. Particulars: cotransfection.
Source text: as §6

The test system of data set [10] is Stat3. As to the kind of experiment: m67 Stat3 binding site luciferase reporter in T47D cells. Particulars: cotransfection. The data set is classed as cell-based, human.
Source text: as §6

The values that follow come from patent publication US9427458B2, “Methods for inhibiting cancer cell proliferation” (Consejo Nacional de Investigaciones Cientificas y Tecnicas, …, priority 2010, dated 2016).

Entries after “also recorded” stand apart in the source; their conditions may differ.

In the case of “5′GAUGGUGCUUACUCAUUGA3′ (other strand missing, further chemistry not given here) [ErbB-2 siRNAs, siRNA designed to specifically knockdown mouse ErbB2 but not human ErbB-2]”, in the data set on Stat3 [1] (C4HD cells transfected with siRNAs to knock down mouse ErbB-2), the “MPA-induced Stat3 phosphorylation” value is given as “inhibited”.
Take “5′GGUCAAAUUUCCUGAGUUGUU3′ (other strand missing, further chemistry not given here) [Stat3 siRNAs, siRNA that targets mouse Stat3]”: in the data set on cyclin D1, the “MPA-induced cyclin D1 protein levels” value is “abrogated”.
With `COc1cc(/C=C(\C#N)C(N)=O)cc(CSc2nc3ccccc3s2)c1O` [AG825], the “MPA-induced ErbB-2 phosphorylation” value in the data set on ErbB-2 [2] and in the data set with ErbB-2 [3] was “prevented” throughout. For the same compound, the “MPA-induced ErbB-2 nuclear translocation” value with ErbB-2 [4] and with ErbB-2 [5] was “abrogated; also recorded: significantly inhibited” each time. Besides, the “MPA-induced Stat3 nuclear migration” value with Stat3 [1] (C4HD cells pretreated with inhibitor before MPA) and with Stat3 [6] was “absolutely prevented” in each case.
On to “Stat3Y705-F: Dominant negative Stat3 expression vector, tyrosine to phenylalanine substitution at codon 705”, for which the “MPA-induced cyclin D1 promoter activation” value in the data set on cyclin D1 promoter [7] and in the data set with cyclin D1 promoter [8] was “absolutely inhibited” throughout.
As for “hErbB-2WT: Human wild-type ErbB-2 expression vector”, the “Stat3 Tyr705 phosphorylation upon MPA stimulation” value in the data set on Stat3 [1] (Transfected C4HD cells versus wild-type C4HD cells also stimulated with MPA) is on record as “higher levels”. Moreover, the “basal levels of Stat3 transcriptional activity” value with cyclin D1 promoter [7] (absence of MPA) is “did not modulate”. Also, in the data set with cyclin D1 promoter [7], the “MPA-induced cyclin D1 promoter activation” value was “significantly enhanced”. Moreover, the “MPA-induced Stat3 transcriptional activation (m67 reporter)” value in the data set with Stat3 [9] and in the data set with Stat3 [10] was “significantly enhanced” each time.
